Measured values from ChEMBL document CHEMBL5104094, “Chemistry, biosynthesis and biological activity of terpenoids and meroterpenoids in bacteria and fungi isolated from different marine habitats” (Eur J Med Chem, 2021).
Values after ≈ are worked out from the molar mass of the structure shown. Structures can show the parent of a compound that is named as a salt.

Tested on: Panel NCI-60 (60 carcinoma cell lines)
Assay: Cytotoxicity against human Panel NCI-60 (60 carcinoma cell lines) assessed as cell growth inhibition
Format: functional, cell-based
Details: not given
`C[C@H]1CC[C@@]23C1=C[C@@]1(C)CC[C@](C)(C[C@H](O)C(=O)[C@@](C)(O)CO)[C@H]1[C@@H]2CC[C@@H]3C` gave an IC50 of 18 µM.
Work on `C[C@H]1CC[C@@]23C1=C[C@@]1(C)CC[C@](C)(C[C@H](O)[C@H](O)C(C)(C)O)[C@H]1[C@@H]2CC[C@@H]3C` yielded an IC50 of 18 µM.
For `C[C@H]1C[C@@H](O)[C@@]23C1=C[C@@]1(C)CC[C@](C)(C[C@H](O)[C@H](O)C(C)(C)O)[C@H]1[C@@H]2CC[C@@H]3C`, the IC50 was 18 µM.
`C[C@H]1CC[C@@]23C1=C[C@@]1(C)CC[C@](C)(C[C@H](O)[C@H](O)C4(C)CO4)[C@H]1[C@@H]2CC[C@@H]3C` (some centres undefined) gave an IC50 of 18 µM.
In the case of `C[C@H]1CC[C@@]23C1=C[C@@]1(C)CC[C@](C)(C[C@H](O)[C@H](O)[C@@](C)(O)CO)[C@H]1[C@@H]2CC[C@@H]3C`, the IC50 is reported as 18 µM.
For `C[C@H]1C[C@@H](O)[C@@]23C1=C[C@@]1(C)CC[C@](C)(C[C@H](O)[C@H](O)[C@@](C)(O)CO)[C@H]1[C@@H]2CC[C@@H]3C`, the IC50 was 18 µM.
Compound `C[C@H]1CC[C@@]23C1=C[C@@]1(C)CC[C@](C)(C[C@H](O)[C@H](O)[C@@](C)(O)CO)[C@H]1[C@@H]2C[C@@H](O)[C@@H]3C` has an IC50 of 18 µM.

Tested on: Mycolicibacterium smegmatis
Assay: Antibiofilm activity against Mycobacterium smegmatis assessed as inhibition of biofilm formation incubated for 4 days
Format: functional
Details: 96 h, time 4 day
`CC(C)=C/C=C\[C@H](C)[C@H]1CC[C@]2(C)C[C@H]3[C@H](C(=O)C[C@@]3(C)O)/C(C=O)=C\C[C@@H]12` gave an MIC of 25 µg/mL (≈ 64.9 µM).
`CC(C)=C/C=C\[C@H](C)[C@H]1CC[C@]2(C)C[C@@H]3C(C)=CC(=O)[C@@H]3/C(C=O)=C\C[C@@H]12` gave an MIC of 6.23 µg/mL (≈ 17 µM).

Tested on: MCF7
Assay: Antitumor activity against Adriamycin-resistant human MCF7 cells xenografted in athymic nude BALB/c mouse assessed as tumor growth inhibition at 5 mg/kg, iv measured every 4 days for 40 days by caliper method relative to control
Format: functional
Details: MCF7, 960 h, time 40 day, read-out: TGI
With `COc1cccc2c1C(=O)c1c(O)c3c(c(O)c1C2=O)C[C@@](O)(C(=O)CO)C[C@@H]3O[C@H]1C[C@H](N)[C@H](O)[C@H](C)O1` [DOXORUBICIN HYDROCHLORIDE] the inhibition in vivo at 5 mg/kg was 46%.

Target: Tyrosine-protein phosphatase non-receptor type 1 (Homo sapiens, UniProt P18031)
Sequence (P18031 whole entry): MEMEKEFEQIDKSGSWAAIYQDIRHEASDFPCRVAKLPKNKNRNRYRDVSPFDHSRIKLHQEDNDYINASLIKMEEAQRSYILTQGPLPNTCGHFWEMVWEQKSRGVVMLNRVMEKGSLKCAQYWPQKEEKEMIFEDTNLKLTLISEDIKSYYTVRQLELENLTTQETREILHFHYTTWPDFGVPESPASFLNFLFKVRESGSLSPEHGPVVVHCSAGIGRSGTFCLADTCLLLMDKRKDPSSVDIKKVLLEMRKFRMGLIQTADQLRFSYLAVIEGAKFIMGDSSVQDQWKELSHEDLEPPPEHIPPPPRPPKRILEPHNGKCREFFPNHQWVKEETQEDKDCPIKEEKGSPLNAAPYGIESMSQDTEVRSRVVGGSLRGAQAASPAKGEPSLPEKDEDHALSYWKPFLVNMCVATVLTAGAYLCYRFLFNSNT
Assay: Inhibition of recombinant human PTP1B expressed in Escherichia coli using p-nitrophenyl phosphate as substrate preincubated for 15 mins followed by substrate addition measured after 60 mins by absorbance based assay
Details: not given
For `CC(C)(O)[C@H]1OC2CC[C@@]3(C)[C@@](O)(CC[C@H]4C[C@]5(OCNc6ccccc65)C(=O)[C@@]43C)C2=CC1=O` (some centres undefined), the IC50 was 1.7 µM.

Target: Tyrosine-protein phosphatase non-receptor type 2 (Homo sapiens, UniProt P17706)
Sequence (P17706 whole entry): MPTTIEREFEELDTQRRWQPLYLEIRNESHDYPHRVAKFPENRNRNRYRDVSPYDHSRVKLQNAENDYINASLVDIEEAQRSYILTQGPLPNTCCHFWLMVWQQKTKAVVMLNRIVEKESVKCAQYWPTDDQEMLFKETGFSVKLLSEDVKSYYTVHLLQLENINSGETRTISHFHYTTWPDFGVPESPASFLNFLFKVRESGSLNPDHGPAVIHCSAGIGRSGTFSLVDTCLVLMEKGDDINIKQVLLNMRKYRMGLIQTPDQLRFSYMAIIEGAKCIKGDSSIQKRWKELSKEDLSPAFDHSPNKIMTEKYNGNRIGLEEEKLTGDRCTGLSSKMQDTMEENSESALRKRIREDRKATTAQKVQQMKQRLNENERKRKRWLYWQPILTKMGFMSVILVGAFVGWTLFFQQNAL
Assay: Inhibition of recombinant human TCPTP expressed in Escherichia coli using p-nitrophenyl phosphate as substrate preincubated for 15 mins followed by substrate addition measured after 60 mins by absorbance based assay
Details: not given
In the case of `CC(C)(O)[C@H]1OC2CC[C@@]3(C)[C@@](O)(CC[C@H]4C[C@]5(OCNc6ccccc65)C(=O)[C@@]43C)C2=CC1=O` (some centres undefined), the IC50 is reported as 1.7 µM.

Tested on: not listed separately
Assay: Inhibition of Influenza virus neuraminidase
Design: species or system unidentified influenza virus
Details: not given
Compound `C=C1[C@]23C(=O)O[C@@H](C)[C@@]2(O)C(=O)O[C@@]1(C)[C@H](O)C1=C(C)[C@@]2(C=CC(=O)OC2(C)C)CC[C@]13C` has an IC50 of 1.37 µM.
`C=C1[C@]23C(=O)O[C@@H](C)[C@@]2(O)C(=O)O[C@@]1(C)[C@H](OC(C)=O)C1=C(C)[C@@]2(C=CC(=O)OC2(C)C)CC[C@]13C` gave an IC50 of 1.37 µM.
For `C=C1[C@@]2(CCC(=O)OC2(C)C)C[C@H](OC(=O)/C(C)=C/C)[C@@]2(C)[C@]34C(=C)[C@@]5(C)OC(=O)[C@@]3(O[C@@]12[C@H]5OC(C)=O)[C@H](C)OC4=O`, the IC50 was 1.37 µM.
`C=C1[C@@]2(CCC(=O)OC2(C)C)C[C@H](OC(=O)c2ccccc2)[C@@]2(C)[C@@]34C(=O)O[C@@H](C)[C@@]35O[C@@]12[C@@H](OC(C)=O)[C@](C)(OC5=O)C4=O` showed an IC50 of 1.37 µM.
With `C=C1C23O[C@@]45C(=O)O[C@](C)(C(=C)[C@@]4(C(=O)O[C@H]5C)[C@]2(C)[C@@H](OC(=O)c2ccccc2)C[C@]12CCC(=O)OC2(C)C)[C@@H]3OC(C)=O` the IC50 was 1.37 µM.
Work on `C=C1[C@@]2(CCC(=O)OC2(C)C)CC[C@@]2(C)[C@]34C(=C)[C@@]5(C)OC(=O)[C@@]3(O[C@@]12[C@H]5O)[C@H](C)OC4=O` yielded an IC50 of 1.37 µM.
Compound `CCOC(=O)C1=C[C@@H](OC(CC)CC)[C@H](NC(C)=O)[C@@H](N)C1` [OSELTAMIVIR] has an IC50 of 0.99 µM.

Tested on: RAW264.7
Assay: Antiinflammatory activity in LPS-stimulated mouse RAW264.7 cells assessed as inhibition of NO production incubated for 2 hrs followed by LPS stimulation measured after 48 hrs […]
Format: functional, cell-based
Details: not given
Compound `C=C1[C@@H](OC(C)=O)[C@@H]2[C@](C)(C(=O)C(O)=C3C(C)(C)C(=O)CC[C@]32C)[C@]2(C(=O)OC)C(=O)[C@@H](C)OC(=O)[C@]12C` has an IC50 of 13.4 µM.
For `C=C1[C@@H](OC(C)=O)[C@@H]2[C@](C)(C(=O)C(O)=C3C(C)(C)C(=O)C=C[C@]32C)[C@]2(C(=O)OC)C(=O)[C@@H](C)OC(=O)[C@]12C`, the IC50 was 13.4 µM.
`C=C1[C@@H](OC(C)=O)[C@H]2[C@]3(C)[C@H]4CC(=O)C(C)(C)[C@]43C(=O)[C@]3(O)OC4=C(C)OC(=O)[C@@]1(C)[C@]4(C(=O)OC)[C@]23C` showed an IC50 of 13.4 µM.
Compound `COc1ccc2c(c1)c(CC(=O)O)c(C)n2C(=O)c1ccc(Cl)cc1` [INDOMETHACIN] has an IC50 of 24 µM.

Target: Tyrosine-protein phosphatase non-receptor type 6 (Homo sapiens, UniProt P29350)
Sequence (P29350 whole entry): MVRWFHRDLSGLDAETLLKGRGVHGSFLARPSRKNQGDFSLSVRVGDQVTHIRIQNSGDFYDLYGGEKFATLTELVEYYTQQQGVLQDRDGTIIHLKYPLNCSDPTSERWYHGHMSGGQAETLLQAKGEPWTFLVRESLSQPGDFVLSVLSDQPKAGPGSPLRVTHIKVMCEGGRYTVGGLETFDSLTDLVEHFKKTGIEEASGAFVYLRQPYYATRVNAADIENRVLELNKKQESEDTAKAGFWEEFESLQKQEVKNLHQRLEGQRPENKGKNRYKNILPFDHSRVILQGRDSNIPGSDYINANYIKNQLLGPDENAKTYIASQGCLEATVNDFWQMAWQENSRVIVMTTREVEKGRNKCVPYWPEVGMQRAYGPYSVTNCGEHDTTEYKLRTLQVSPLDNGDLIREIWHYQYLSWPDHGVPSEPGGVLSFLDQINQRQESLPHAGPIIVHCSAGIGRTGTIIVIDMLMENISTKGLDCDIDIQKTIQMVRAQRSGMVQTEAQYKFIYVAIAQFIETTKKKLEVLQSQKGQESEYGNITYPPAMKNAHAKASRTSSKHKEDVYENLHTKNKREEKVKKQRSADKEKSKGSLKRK
Assay: Inhibition of recombinant human SHP1 expressed in Escherichia coli using pnitrophenyl phosphate as substrate preincubated for 15 mins followed by substrate addition measured after 60 mins by absorbance based assay
Details: not given
Compound `COC(=O)[C@]12[C@](C)(C(=O)[C@@]1(C)O)C(C)=C[C@H]1[C@]34CC[C@H](OC(C)=O)C(C)(C)[C@H]3[C@H](C[C@@]12C)OC4=O` has an IC50 of 23 µM.
`COC(=O)[C@@]12C(=O)[C@@](C)(O)[C@]1(C)C(C)=C[C@H]1[C@]34CC[C@H](OC(C)=O)C(C)(C)[C@H]3[C@H](C[C@@]12C)OC4=O` showed an IC50 of 34 µM.
Work on `COC(=O)[C@@]12C(=O)[C@](C)(O)C(=O)[C@@H](C(C)=C1C)C1[C@]2(C)C[C@@H]2OC(=O)[C@]13CC[C@H](OC(C)=O)C(C)(C)[C@@H]23` (some centres undefined) yielded an IC50 of 22 µM.

Target: T1, M-phase inducer phosphatase 2 (Homo sapiens, UniProt P30305)
T1 sequence (P30305 whole entry): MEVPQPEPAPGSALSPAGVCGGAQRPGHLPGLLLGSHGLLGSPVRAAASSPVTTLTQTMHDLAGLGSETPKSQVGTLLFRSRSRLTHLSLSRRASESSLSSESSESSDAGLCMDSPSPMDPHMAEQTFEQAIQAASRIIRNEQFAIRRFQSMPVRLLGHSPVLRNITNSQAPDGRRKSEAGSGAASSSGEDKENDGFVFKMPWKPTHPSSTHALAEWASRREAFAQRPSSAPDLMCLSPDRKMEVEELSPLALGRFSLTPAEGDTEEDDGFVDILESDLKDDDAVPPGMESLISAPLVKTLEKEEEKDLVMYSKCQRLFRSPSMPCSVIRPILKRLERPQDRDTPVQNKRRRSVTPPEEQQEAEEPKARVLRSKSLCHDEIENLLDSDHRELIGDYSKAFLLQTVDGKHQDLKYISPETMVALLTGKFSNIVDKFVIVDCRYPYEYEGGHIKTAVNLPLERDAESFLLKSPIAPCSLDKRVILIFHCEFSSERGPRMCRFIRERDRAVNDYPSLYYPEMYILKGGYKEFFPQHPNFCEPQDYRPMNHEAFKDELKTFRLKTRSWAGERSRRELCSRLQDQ
Assay: Inhibition of recombinant human CDC25B expressed in Escherichia coli using pnitrophenyl phosphate as substrate preincubated for 15 mins followed by substrate addition measured after 60 mins by absorbance based assay
Details: not given
`COC(=O)[C@]12[C@](C)(C(=O)[C@@]1(C)O)C(C)=C[C@H]1[C@]34CC[C@H](OC(C)=O)C(C)(C)[C@H]3[C@H](C[C@@]12C)OC4=O` showed an IC50 of 18 µM.
With `COC(=O)[C@@]12C(=O)[C@@](C)(O)[C@]1(C)C(C)=C[C@H]1[C@]34CC[C@H](OC(C)=O)C(C)(C)[C@H]3[C@H](C[C@@]12C)OC4=O` the IC50 was 19 µM.
With `COC(=O)[C@@]12C(=O)[C@](C)(O)C(=O)[C@@H](C(C)=C1C)C1[C@]2(C)C[C@@H]2OC(=O)[C@]13CC[C@H](OC(C)=O)C(C)(C)[C@@H]23` (some centres undefined) the IC50 was 20 µM.
